Experimental data reported in PMC7293037, “Fuse to defuse: a self-limiting ribonuclease-ring nuclease fusion for type III CRISPR defence” (Nucleic Acids Research, 2020).
Where two headings read alike, the source gives them in different places.

How the values were obtained:
Csx1-Crn2 [1] = target: T1, Csx1-Crn2; assay: EMSA with radiolabelled cA4; format: binding, Marinitoga piezophila; conditions: pH 7.5, 2 mM MgCl2, 25 °C; Crn2 ring nuclease site (CARF site also present); labelled compound; no obvious gel shift, value judged from cA4 cleavage at high protein concentration; discussion gives > 1; read-out: apparent KD
T1 construct: full length, 563 aa natural fusion; synthetic gene codon-optimised, expressed in E. coli C43 (DE3); N-terminal His tag removed by TEV; V177L in the cloned gene; dimer

Csx1-Crn2 [2] = target: T1, Csx1-Crn2; assay: EMSA with radiolabelled cA4; format: binding, Marinitoga piezophila; conditions: pH 7.5, 2 mM MgCl2, 25 °C; Crn2 ring nuclease site (CARF site also present); labelled compound; read-out: apparent KD

How did the Kd (Csx1-Crn2 [1]) turn out when `Nc1ncnc2c1ncn2[C@@H]1O[C@@H]2COP(=O)(O)O[C@H]3[C@@H](O)[C@H](n4cnc5c(N)ncnc54)O[C@@H]3COP(=O)(O)O[C@H]3[C@@H](O)[C@H](n4cnc5c(N)ncnc54)O[C@@H]3COP(=O)(O)O[C@H]3[C@@H](O)[C@H](n4cnc5c(N)ncnc54)O[C@@H]3COP(=O)(O)O[C@H]2[C@H]1O` [cA4] was run?
Its Kd is roughly 1000 nM.

And the Kd (Csx1-Crn2 [2])?
The Kd was roughly 20 nM.
